# Columns and labels:
# NTR1 = NTR1 (Homo sapiens, UniProt P30989); experiment: NTR1 agonist-mediated calcium mobilization assay; format: cell-based; conditions: for NTR1 specificity of the observed calcium release (block by NTR1 antagonist 1a): cells pre-incubated with 1 or 10 mM 1a for 15 min at 37 °C, test compound at its EC50, data not shown
# NTR1 receptor = conditions: calcium release (FLIPR) assay; cited from earlier work
# Sequence of NTR1 (P30989 whole entry, species assumed): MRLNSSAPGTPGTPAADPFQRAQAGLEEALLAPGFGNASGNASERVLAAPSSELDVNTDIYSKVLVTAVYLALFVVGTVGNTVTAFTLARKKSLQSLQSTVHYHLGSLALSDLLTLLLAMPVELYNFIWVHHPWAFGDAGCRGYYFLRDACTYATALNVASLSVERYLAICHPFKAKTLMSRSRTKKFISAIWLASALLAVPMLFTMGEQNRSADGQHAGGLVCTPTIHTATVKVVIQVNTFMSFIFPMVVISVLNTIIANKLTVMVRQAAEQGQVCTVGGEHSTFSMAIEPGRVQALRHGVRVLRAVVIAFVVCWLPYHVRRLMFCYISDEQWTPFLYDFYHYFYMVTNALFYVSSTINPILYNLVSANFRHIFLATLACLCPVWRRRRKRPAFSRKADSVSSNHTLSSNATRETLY
Structure (SMILES),NTR1 receptor partial agonist activity (NTR1 receptor),NTR1 specificity of the observed calcium release (block by NTR1 antagonist 1a) (NTR1),other results
"COc1cccc(OC)c1-c1cc(C(=O)N[C@H](C(=O)O)C2CCCCC2)nn1-c1ccnc2cc(Cl)ccc12 [Compound 1b, reference compound]",,,"Screen (10 μM), percent stimulation relative to NT (NTR1; 10 μM, in triplicate, CHO-K1 cells stably expressing NTR1, NA = not active): did not stimulate calcium release"
COc1cccc(OC)c1-c1cc(C(=O)N[C@@H](CC(C)C)C(=O)O)nn1-c1cccc2ccccc12 [Compound 5],,,agonist activity when screened (NTR1): no agonist activity
CC(C)C[C@H](NC(=O)Cn1ccc2cc(NS(=O)(=O)c3cccc4cccnc34)ccc21)C(=O)O [Compound 7],partial agonist activity,,
COc1cccc(OC)c1-c1cc(C(=O)N[C@@H](CC(C)C)C(=O)O)nn1-c1ccnc2cc(Cl)ccc12 [Compound 3a],,demonstrated by blocking with the NTR1 antagonist (1a),"Emax (NTR1; ± SEM, relative to neurotensin): 51 %NT"
CC(C)CC(NC(=O)OCC1c2ccccc2-c2ccccc21)C(=O)O (stereo not shown) [Compound 6],partial agonist activity,,
COc1cccc(OC)c1-c1cc(C(=O)N[C@H](CC(C)C)C(=O)O)nn1-c1ccnc2cc(Cl)ccc12 [Compound 3b],,demonstrated by blocking with the NTR1 antagonist (1a),

# From PMC4418176 (Bioorganic & medicinal chemistry letters, 2009)
